The values below are quoted from earlier work in patent US11291679B1, “Injectable, infusable, instillable ivermectin adjuvant for cancer therapies” (MOUNTAIN VALLEY MD INC., priority 2021, dated 2022).

Series [1] has as its system breast tumors.

`CCC(C)n1ncn(-c2ccc(N3CCN(c4ccc(OCC5COC(Cn6cncn6)(c6ccc(Cl)cc6Cl)O5)cc4)CC3)cc2)c1=O` (stereo not shown) [itraconazole]: the “variability of cmax in blood plasma levels” value (blood plasma) is on record as 4-5 fold. In addition, the “variation across the concentrations in the tumor environment” value (tumor environment) is roughly 15 fold.
ivermectin: the “immunogenic cancer cell death and T cell infiltration” value in series [1] is “induces immunogenic cancer cell death (ICD) and robust T cell infiltration into breast tumors”. In addition, in series [1] (single agent or combination, synergy p=0.03), the “efficacy in vivo (limiting tumor growth)” value is given as “neither agent alone showed efficacy in vivo”.
